# Patent US4431807A, “4-Methyl-5-(unsubstituted and substituted phenoxy)-6-methoxy-8-(aminoalkylamino)quinolines” (priority 1981, dated 1984)
# Key:
# [1] = tested on: Plasmodium berghei; test: Blood schizonticidal (suppressive) test, Rane mouse test, P. berghei; format: in vivo, Plasmodium berghei KBG 173 in ICR/HA Swiss mice
# Source text: Blood Schizonticidal Test (Mouse), University of Miami, Rane (Suppressive)
# This system is based on comparisons of responses to test compounds by Plasmodium berghei KBG 173 malaria in mice as expressed in mean survival times and the mean survival times of untreated controls. Thus, compounds noted as active produce increases in the survival times of the treated animals that are significant when compared with the survival times of untreated controls. Since an established disease is less sensitive to treatment than a disease in the early stages of development, treatment is withheld until the parasitemia is relatively high in order to insure a more reliable assay of activity and the selection of appropriate compounds for intensive preclinical studies.
# Utilizing young ICR/HA Swiss mice and a standard inoculum of Plasmodium berghei KBG 173, it is possible to produce a uniform disease fatal to 100% of untreated animals within 6 to 8 days with a mean survival time of 6.2 days. Test animals weigh from 18 to 22 grams but weight variations in any given experimental or control group are confined to 2-3 grams. All animals in any given test are approximately of the same age. Animals on test are housed in metal-topped plastic cages, given a standard laboratory diet and water ad libitum.
# Test animals receive an intraperitoneal injection of 0.5 ml of 1:100 dilution of heparinized heart's blood with a minimum of 90% parasitized cells (4×10^7 cells), drawn from donor mice infected one week earlier with Plasmodium berghei. The donor stran is maintained by weekly passages in separate groups of mice inoculated with a 0.5 ml of 1:500 dilution of heparinized heart's blood.
# Test compounds are administered after dissolution or suspension in peanut oil. A single dose is given subcutaneously 72 hours after the mice are infected with Plasmodium berghei. At this time a 10-15 percent parasitemia has developed; the disease is well established but has not produced sufficient debility to alter the response of the host to toxic effects of the drug on test. Since treatment is withheld for three days to permit the infection to become well established and death occurs in untreated controls within 6-8 days, it is believed that this system presents a candidate compound with the maximum challenge. In order to check factors such as changes in the infectivity of Plasmodium berghei or in the susceptibility of the host or to detect technical errors, a group of infected animals treated with pyrimethamine at dose levels producing definite increases in survival time is included as a positive control in every experiment.
# In each experiment test compounds are administered in graded doses. […] However, if an active drug is toxic for the host, its toxicity may become a limiting factor; continued increases in dose levels also increase the toxic effects and may result in the diminution of survival times. Deaths prior to the sixth day, when untreated controls begin to die, are regarded as non-parasitic and become the basis for toxicity evaluations. Treated animals are kept under observation for 60 days. Survivors at the end of this period of time are considered as cured.
# An increase of 100% in mean survival time is considered the minimum effective response for a candidate compound. In calculating mean survival time, toxic deaths and 60 day survivors are not included.
# The antimalarial activity data acquired by the two test procedures described above are listed in Tables 2 and 3 for the compounds of this invention. In Table 4, the most promising compound of the series, compound 1, is compared directly with primaquine together with some additional test data for compound 1 compared to primaquine. In all the work reported herein primaquine is used in the form of the diphosphate salt. The test data are expressed in the form of the number of cures at a given dose level. […]
# [2] = Acute oral toxicity, mice
# [3] = Acute oral toxicity, rats
# [4] = tested on: P. cynomolgi; test: SEATO suppressive test, P. cynomolgi, rhesus monkey (parasitized blood inoculation, no chloroquine); format: in vivo, P. cynomolgi in rhesus monkey
# Description: Equally significant is the suppressive activity comparison (Part A-2) in the Rhesus monkey. This test differs from the SEATO radical curative test primarily in that parasitemia is induced by intravenous inoculation of parasitized blood (rather than sporozoites) and that chloroquine is not co-administered with the test drug. […] On the other hand, compound 1 is curative at doses down to 1.0 mg/kg/day.
# [5] = tested on: P. cynomolgi; test: Combination drug therapy including chloroquine as suppressive adjuvant, radical curative studies; format: in vivo, P. cynomolgi in rhesus monkeys; conditions: for Activity at 3.5 mg/kg (×1): primaquine with chloroquine, compound 1 without chloroquine; for Fully curative dose level: single dose, with chloroquine
# [6] = 160 mg/kg × 1, s.c., five mice, Table III
# [7] = 320 mg/kg × 1, s.c., five mice, Table III
# [8] = 640 mg/kg × 1, s.c., five mice, Table III
# [9] = 0.875 mg/kg base × 1, oral, without chloroquine
# [10] = 1.75 mg/kg base × 1, oral, plus chloroquine
# [11] = 3.5 mg/kg base × 1, oral, without chloroquine
# [12] = 14 mg/kg base × 1, oral, without chloroquine
# [13] = 3.5 mg/kg base × 1, oral, plus chloroquine
# [14] = 7 mg/kg base × 1, oral, plus chloroquine
smiles,measurement,setting,value
"COc1cc(NC(C)CCCN)c2nccc(C)c2c1Oc1cccc(C(F)(F)F)c1.O=C(O)CCC(=O)O (stereo not shown) [Compound 1, 8-(4-Amino-1-methylbutylamino)-6-methoxy-4-methyl-5-(3-trifluoromethylphenoxy)quinoline Succinate]",Extension of survival,"[1]; 5 mg/kg salt, s.c., Table IV A-1",7 days
same,Cures (60 days survival),"[1]; 5 mg/kg × 1, s.c., five mice, Table III",1C
same,Cures (60 days survival),"[1]; 10 mg/kg × 1, s.c., five mice, Table III",3C
same,Cures (60 days survival),"[1]; 20 mg/kg × 1, s.c., five mice, Table III",5C
same,Cures (60 days survival),"[1]; 40 mg/kg × 1, s.c., five mice, Table III",5C
same,Cures (60 days survival),"[1]; 80 mg/kg × 1, s.c., five mice, Table III",5C
same,Cures (60 days survival),[1]; [6],5C
same,Cures (60 days survival),[1]; [7],5C
same,Toxic deaths,"[1]; 640 mg/kg salt, s.c., Table IV A-1",4T
same,Cures (60 days survival),[1]; [8],1C
same,Toxic,[1]; [8],4T
same,minimal effective dose,"[1]; Plasmodium berghei, sc, single dose, read-out: Curative dose, suppressive test",10 mg/kg
same,LD50 ratio Compound 1/Primaquine,"[2]; mice, male",1.59
same,LD50 ratio Compound 1/Primaquine,"[3]; rats, female",2.76
same,LD50 ratio Compound 1/Primaquine,"[3]; rats, male",1.46
same,minimal effective dose,"[4]; Plasmodium cynomolgi, in Macaca mulatta, po, curative at doses down to, read-out: Lowest curative dose, suppressive test in rhesus",1 mg/kg/day
same,Relapse,"[5]; 0.4375 mg/kg base × 1, oral, plus chloroquine",4R
same,Relapse,"[5]; 0.4375 mg/kg base × 1, oral, without chloroquine",4R
same,Cure,"[5]; 0.875 mg/kg base × 1, oral, plus chloroquine",4C
same,Relapse,[5]; [9],1R
same,Suppressive failure,[5]; [9],3SF
same,Cure,[5]; [10],2C
same,Suppressive failure,"[5]; 1.75 mg/kg base × 1, oral, without chloroquine",4SF
same,Cure,[5]; [11],1C
same,Suppressive failure,[5]; [11],1SF
same,Cure,"[5]; 7 mg/kg base × 1, oral, without chloroquine",2C
same,Cure,[5]; [12],1C
same,Suppressive failure,[5]; [12],1SF
same,Activity at 3.5 mg/kg (×1),[5],equally active
same,Fully curative dose level,[5],0.875 mg/kg
same,Molar Primaquine Index,[5]; with chloroquine co-administration,19
"COc1cc(NC(C)CCCN)c2ncccc2c1 (stereo not shown) [Primaquine Diphosphate, 8-((4-amino-1-methylbutyl)amino)-6-methoxy-quinoline, reference compound]",Extension of survival relative to controls,"[1]; 80 mg/kg × 1, s.c., Table III",9 days
same,Extension of survival,"[1]; 160 mg/kg salt, s.c., Table IV A-1",9 days
same,Extension of survival relative to controls,"[1]; 160 mg/kg × 1, s.c., Table III",9 days
same,Suppressive activity (active/inactive),[1]; [6],"A (Active, 7 Days or more estension of survival relative to controls.)"
same,Toxic,[1]; [6],2T
same,Toxic,[1]; [7],5T
same,Toxic,[1]; [8],5T
same,"Cures, Rane mouse test","[1]; all doses, s.c., Table IV A-1",No Cures
same,"Toxicity and curative activity, Rane mouse test",[1]; any dose level,toxic and non-curative at any dose level
same,LD50,"[2]; mouse, in vivo, po",148 mg/kg
same,LD50,"[3]; rat, in vivo, po",224 mg/kg
same,Acute Oral LD50,"[3]; rats, male",177 mg/kg
same,"Cures, suppressive test in rhesus","[4]; all doses, oral, × 7 days",No Cures
same,Suppressive activity in the rhesus,[4]; in words,failed to clear the blood schizonts completely
same,Relapse,[5]; [10],2R
same,Cure,[5]; [13],2C
same,Relapse,[5]; [13],1R
same,Suppressive failure,[5]; [13],1SF
same,Cure,[5]; [14],2C
same,Relapse,[5]; [14],1R
same,Suppressive failure,[5]; [14],1SF
same,Cure,"[5]; 14 mg/kg base × 1, oral, plus chloroquine",2C
same,Activity at 3.5 mg/kg (×1),[5],effective although a relapse was observed in one of the four animals
same,Fully curative dose level,[5],14 mg/kg
